# Data published in EP4603105A1, “PHARMACEUTICAL COMPOSITION CONTAINING CYCLIC COMPOUND HAVING SELECTIVE KRAS INHIBITORY EFFECT AGAINST HRAS AND NRAS” (CHUGAI SEIYAKU KABUSHIKI KAISHA, priority 2022, dated 2024).
# Tests used:
# [1] = target: GDP-bound KRAS wild-type protein (Homo sapiens, UniProt P01116); assay: Binding to KRAS by surface plasmon resonance (SPR), dissociation constant KD; settings: Single Cycle Kinetics
# Procedure, shortened: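 Recombinant RAS proteins bearing a biotinylated Avi tag and loaded with GDP served as the captured ligand, recaptured fresh every cycle. Binding responses were referenced to an uncoated surface and a buffer-only blank cycle. Dissociation constants were obtained by 1:1 model fitting at 30°C.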
# [2] = target: GDP-bound NRAS wild-type protein (Homo sapiens, UniProt P01111); assay: Binding to NRAS by surface plasmon resonance (SPR), KD and KD ratio to KRAS; settings: ratio of KD for GDP-bound NRAS wild-type protein to KD for KRAS
# Procedure, shortened: (§1)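 Affinity is measured by surface plasmon resonance at 30°C against captured, GDP-loaded RAS carrying a biotinylated Avi tag. Compounds are titrated by single-cycle kinetics, and KD comes from a 1:1 fit.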
# HRAS wild-type protein = HRAS wild-type protein (Homo sapiens, UniProt P01112); assay: Binding to HRAS by surface plasmon resonance (SPR), KD and KD ratio to KRAS; settings: ratio of KD for HRAS wild-type protein to KD for KRAS
# Procedure, shortened: as §1
# [3] = test system: human lung cancer strain NCI-H441; assay: NCI-H441 cell proliferation inhibitory activity (CellTiter-Glo, 4 days); assay type: cell-based; settings: NCI-H441 cells, 4 days, read-out: NCl-H441 IC50
# Procedure, shortened: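 Readout: […] after the ATP-based reagent. Compound: serial dilutions in dimethyl sulfoxide.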
# GDP-bound NRAS wild-type protein, sequence (P01111 whole entry): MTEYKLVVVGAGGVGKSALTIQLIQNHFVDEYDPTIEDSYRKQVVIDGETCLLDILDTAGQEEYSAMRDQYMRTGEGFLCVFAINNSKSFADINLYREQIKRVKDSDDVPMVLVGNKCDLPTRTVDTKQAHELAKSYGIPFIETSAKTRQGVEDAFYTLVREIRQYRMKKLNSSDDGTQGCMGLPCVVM
# GDP-bound KRAS wild-type protein, sequence (P01116 1-188 isoform P01116-2): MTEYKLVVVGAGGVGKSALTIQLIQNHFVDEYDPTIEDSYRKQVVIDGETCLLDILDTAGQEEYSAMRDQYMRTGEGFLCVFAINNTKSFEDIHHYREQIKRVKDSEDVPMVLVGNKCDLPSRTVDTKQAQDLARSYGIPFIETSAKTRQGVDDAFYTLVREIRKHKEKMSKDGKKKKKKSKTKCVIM
# HRAS wild-type protein, sequence (P01112 whole entry): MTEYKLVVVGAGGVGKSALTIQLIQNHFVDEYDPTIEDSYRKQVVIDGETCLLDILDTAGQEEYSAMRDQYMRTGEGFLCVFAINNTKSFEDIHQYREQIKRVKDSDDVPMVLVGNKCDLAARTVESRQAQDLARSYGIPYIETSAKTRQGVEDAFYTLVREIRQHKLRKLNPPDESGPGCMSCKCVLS
SMILES,Kd [1],NRAS /KRAS [2],HRAS /KRAS (HRAS wild-type protein),IC50 [3]
CCO[C@@H]1C[C@H]2C(=O)NC3(CC(C)(C)C3)C(=O)N(C)[C@@H](C3CCCC3)C(=O)N(C)[C@H](C(=O)N(C)CC)CC(=O)N(C)[C@@H]([C@@H](C)OC)C(=O)N[C@@H]([C@@H](C)CC)C(=O)N(C)CC(=O)N(C)[C@H]3C/C=C\CCN(C3=O)[C@@H](Cc3ccc(C)cc3)C(=O)N(C)CC(=O)N[C@@H](CCc3ccc(C(F)(F)F)c(OC)c3)C(=O)N2C1 [PP3176],0.09 nM,A (a compound having 10 or more and less than 20 is denoted as A),A (a compound having 10 or more and less than 20 is denoted as A),13.6 nM
CCO[C@@H]1C[C@H]2C(=O)NC3(CC(C)(C)C3)C(=O)N(C)[C@@H](C3CCCC3)C(=O)N(C)[C@H](C(=O)N(C)C)CC(=O)N(C)[C@@H]([C@@H](C)OC)C(=O)N[C@@H]([C@@H](C)CC)C(=O)N3CCC[C@H]3C(=O)N(C)[C@H]3C/C=C\CCN(C3=O)[C@@H](Cc3ccc(C)cc3)C(=O)N(C)CC(=O)N[C@@H](CCc3ccc(C(F)(F)F)c(Cl)c3)C(=O)N2C1 [PP3215],0.68 nM,A (a compound having 10 or more and less than 20 is denoted as A),A (a compound having 10 or more and less than 20 is denoted as A),109 nM
CCO[C@@H]1C[C@H]2C(=O)NC3(CC(C)(C)C3)C(=O)N(C)[C@@H](C3CCCC3)C(=O)N(C)[C@H](C(=O)N(C)CC)CC(=O)N(C)[C@@H]([C@H](C)OC)C(=O)N[C@@H]([C@@H](C)CC)C(=O)N(C)CC(=O)N(C)[C@H]3C/C=C\CCN(C3=O)[C@@H](Cc3ccc(C(F)(F)F)cc3)C(=O)N(C)CC(=O)N[C@@H](CCc3cc(F)c(C(F)(F)F)c(F)c3)C(=O)N2C1 [PP3217],0.18 nM,A (a compound having 10 or more and less than 20 is denoted as A),B (a compound having 3 or more and less than 10 is denoted as B),9.9 nM
CCO[C@@H]1C[C@H]2C(=O)NC3(CC(C)(C)C3)C(=O)N(C)[C@@H](C3CCCC3)C(=O)N(C)[C@H](C(=O)N(C)CC)CC(=O)N(C)[C@@H]([C@H](C)OC)C(=O)N[C@@H]([C@@H](C)CC)C(=O)N(C3CC3)CC(=O)N(C)[C@H]3C/C=C\CCN(C3=O)[C@@H](Cc3ccc(C(F)(F)F)cc3)C(=O)N(C)CC(=O)N[C@@H](CCc3ccc(C(F)(F)F)c(OC)c3)C(=O)N2C1 [PP3219],0.53 nM,A (a compound having 10 or more and less than 20 is denoted as A),A (a compound having 10 or more and less than 20 is denoted as A),19.6 nM
CCO[C@@H]1C[C@H]2C(=O)NC3(CC(C)(C)C3)C(=O)N(C)[C@@H](C3CCCC3)C(=O)N(C)[C@H](C(=O)N(C)CC)CC(=O)N(C)[C@@H]([C@H](C)OC)C(=O)N[C@@H]([C@@H](C)CC)C(=O)N(C3CC3)CC(=O)N(C)[C@H]3C/C=C\CCN(C3=O)[C@@H](Cc3ccc(C(F)(F)F)cc3)C(=O)N(C)CC(=O)N[C@@H](CCc3cc(F)c(C(F)(F)F)c(F)c3)C(=O)N2C1 [PP3220],0.52 nM,A (a compound having 10 or more and less than 20 is denoted as A),A (a compound having 10 or more and less than 20 is denoted as A),25.7 nM
CCO[C@@H]1C[C@H]2C(=O)NC3(CC(C)(C)C3)C(=O)N(C)[C@@H](C3CCCC3)C(=O)N(C)[C@H](C(=O)N(C)CC)CC(=O)N(C)[C@@H]([C@H](C)OC)C(=O)N[C@@H]([C@@H](C)CC)C(=O)N(C3CC3)CC(=O)N(C)[C@H]3C/C=C\CCN(C3=O)[C@@H](Cc3ccc(C(F)(F)F)cc3)C(=O)N(C)CC(=O)N[C@@H](CCc3ccc(C(F)(F)F)c(Cl)c3)C(=O)N2C1 [PP3221],0.82 nM,A (a compound having 10 or more and less than 20 is denoted as A),A (a compound having 10 or more and less than 20 is denoted as A),51.5 nM
CCO[C@@H]1C[C@H]2C(=O)NC3(CC(C)(C)C3)C(=O)N(C)[C@@H](C3CCCC3)C(=O)N(C)[C@H](C(=O)N(C)CC)CC(=O)N(C)[C@@H]([C@H](C)OC)C(=O)N[C@@H]([C@@H](C)CC)C(=O)N3CCC[C@H]3C(=O)N(C)[C@H]3C/C=C\CCN(C3=O)[C@@H](Cc3ccc(C(F)(F)F)cc3)C(=O)N(C)CC(=O)N[C@@H](CCc3ccc(C(F)(F)F)c(OC)c3)C(=O)N2C1 [PP3222],1.4 nM,A (a compound having 10 or more and less than 20 is denoted as A),A (a compound having 10 or more and less than 20 is denoted as A),71.7 nM
CCO[C@@H]1C[C@H]2C(=O)NC3(CC(C)(C)C3)C(=O)N(C)[C@@H](C3CCCC3)C(=O)N(C)[C@H](C(=O)N(C)CC)CC(=O)N(C)[C@@H]([C@H](C)OC)C(=O)N[C@@H]([C@@H](C)CC)C(=O)N3CCC[C@H]3C(=O)N(C)[C@H]3C/C=C\CCN(C3=O)[C@@H](Cc3ccc(C(F)(F)F)cc3)C(=O)N(C)CC(=O)N[C@@H](CCc3cc(F)c(C(F)(F)F)c(F)c3)C(=O)N2C1 [PP3223],1.1 nM,A (a compound having 10 or more and less than 20 is denoted as A),A (a compound having 10 or more and less than 20 is denoted as A),49.6 nM
CCO[C@@H]1C[C@H]2C(=O)NC3(CC(C)(C)C3)C(=O)N(C)[C@@H](C3CCCC3)C(=O)N(C)[C@H](C(=O)N(C)CC)CC(=O)N(C)[C@@H]([C@H](C)OC)C(=O)N[C@@H]([C@@H](C)CC)C(=O)N3CCC[C@H]3C(=O)N(C)[C@H]3C/C=C\CCN(C3=O)[C@@H](Cc3ccc(C(F)(F)F)cc3)C(=O)N(C)CC(=O)N[C@@H](CCc3ccc(C(F)(F)F)c(Cl)c3)C(=O)N2C1 [PP3224],1.9 nM,A (a compound having 10 or more and less than 20 is denoted as A),A (a compound having 10 or more and less than 20 is denoted as A),55.4 nM
CCO[C@@H]1C[C@H]2C(=O)NC3(CC(C)(C)C3)C(=O)N(C)[C@@H](C3CCCC3)C(=O)N(C)[C@H](C(=O)N(C)CC)CC(=O)N(C)[C@@H]([C@H](C)OC)C(=O)N[C@@H]([C@@H](C)CC)C(=O)N(C)CC(=O)N(C)[C@H]3C/C=C\CCN(C3=O)[C@@H](Cc3ccc(C)cc3)C(=O)N(C)CC(=O)N[C@@H](CCc3cc(F)c(C(F)(F)F)c(F)c3)C(=O)N2C1 [PP3226],0.3 nM,A (a compound having 10 or more and less than 20 is denoted as A),B (a compound having 3 or more and less than 10 is denoted as B),12.4 nM
CCO[C@@H]1C[C@H]2C(=O)NC3(CC(C)(C)C3)C(=O)N(C)[C@@H](C3CCCC3)C(=O)N(C)[C@H](C(=O)N(C)CC)CC(=O)N(C)[C@@H]([C@H](C)OC)C(=O)N[C@@H]([C@@H](C)CC)C(=O)N(C)CC(=O)N(C)[C@H]3C/C=C\CCN(C3=O)[C@@H](Cc3ccc(C)cc3)C(=O)N(C)CC(=O)N[C@@H](CCc3ccc(C(F)(F)F)c(Cl)c3)C(=O)N2C1 [PP3227],0.21 nM,A (a compound having 10 or more and less than 20 is denoted as A),A (a compound having 10 or more and less than 20 is denoted as A),23.2 nM
CCO[C@@H]1C[C@H]2C(=O)NC3(CC(C)(C)C3)C(=O)N(C)[C@@H](C3CCCC3)C(=O)N(C)[C@H](C(=O)N(C)CC)CC(=O)N(C)[C@@H]([C@H](C)OC)C(=O)N[C@@H]([C@@H](C)CC)C(=O)N(C3CC3)CC(=O)N(C)[C@H]3C/C=C\CCN(C3=O)[C@@H](Cc3ccc(C)cc3)C(=O)N(C)CC(=O)N[C@@H](CCc3ccc(C(F)(F)F)c(OC)c3)C(=O)N2C1 [PP3228],0.81 nM,A (a compound having 10 or more and less than 20 is denoted as A),A (a compound having 10 or more and less than 20 is denoted as A),41.5 nM
C#CC[C@H]1C(=O)N[C@@H]([C@@H](C)CC)C(=O)N(C)CC(=O)N(C)[C@H]2C/C=C\CCN(C2=O)[C@@H](Cc2ccc(C(F)(F)F)cc2)C(=O)N(C)CC(=O)N[C@@H](CCc2ccc(C(F)(F)F)c(OC)c2)C(=O)N2C[C@H](OCC)C[C@H]2C(=O)N(C)C2(CCC2)C(=O)N(C)[C@@H](C2CCCC2)C(=O)N(C)[C@H](C(=O)N(C)C)CC(=O)N1C [PP3230],0.03 nM,A (a compound having 10 or more and less than 20 is denoted as A),A (a compound having 10 or more and less than 20 is denoted as A),2.6 nM
CCC[C@H]1C(=O)N[C@@H]([C@@H](C)CC)C(=O)N(C)CC(=O)N(C)[C@H]2C/C=C\CCN(C2=O)[C@@H](Cc2ccc(C(F)(F)F)cc2)C(=O)N(C)CC(=O)N[C@@H](CCc2ccc(C(F)(F)F)c(Cl)c2)C(=O)N2CC[C@H](OC)[C@H]2C(=O)N(C)C2(CCC2)C(=O)N(C)[C@@H](C2CCCC2)C(=O)N(C)[C@H](C(=O)N(C)C)CC(=O)N1C [PP3231],0.064 nM,A (a compound having 10 or more and less than 20 is denoted as A),A (a compound having 10 or more and less than 20 is denoted as A),7.4 nM
